How the values were obtained:
[1] = tested on: Puccinia recondita f. sp. tritici; assay: Puccinia recondita f. sp. tritici / wheat / leaf disc preventative (brown rust); type: in vivo; settings: foliar, wheat cv Kanzler leaf segments, inoculated 1 day after application, assessed 7-9 days after application, read-out: control of Puccinia recondita f. sp. tritici (percent disease control compared to untreated)
Procedure: Puccinia recondita f. sp. tritici/Wheat/Leaf Disc Preventative (Brown Rust) Wheat leaf segments cultivated variety (cv) Kanzler were placed on agar in 24-well plates and sprayed with formulated test compound diluted in water at an application rate of 200 ppm. The leaf disks were inoculated with a spore suspension of the fungus 1 day after application. The inoculated leaf segments were incubated at 19° C. and 75% relative humidity under a light regime of 12/12 h (light/dark) in a climate cabinet and the activity of a compound was assessed as percent disease control compared to untreated when an appropriate level of disease damage appears in untreated check leaf segments (7-9 days after application). […].103

[2] = tested on: Puccinia recondita f. sp. tritici; assay: Puccinia recondita f. sp. tritici / wheat / leaf disc curative (brown rust); type: in vivo; settings: foliar, wheat cv Kanzler leaf segments, applied 1 day after inoculation, assessed 6-8 days after application, read-out: control of Puccinia recondita f. sp. tritici (percent disease control compared to untreated)
Procedure: Puccinia recondita f. sp. tritici/Wheat/Leaf Disc Curative (Brown Rust): Wheat leaf segments cv Kanzler were placed on agar in 24-well plates. The leaf segments were inoculated with a spore suspension of the fungus. The plates were stored in darkness at 19° C. and 75% relative humidity. The formulated test compound diluted in water was applied at an application rate of 200 ppm 1 day after inoculation.

[3] = tested on: Phaeosphaeria nodorum (Septoria nodorum); assay: Phaeosphaeria nodorum (Septoria nodorum) / wheat / leaf disc preventative (glume blotch); type: in vivo; settings: Parastagonospora nodorum, foliar, wheat cv Kanzler leaf segments, inoculated 2 days after application, assessed 5-7 days after application, read-out: control of Phaeosphaeria nodorum (percent disease control compared to untreated)
[4] = tested on: Pyrenophora teres; assay: Pyrenophora teres / barley / leaf disc preventative (net blotch); type: in vivo; settings: foliar, barley cv Hasso leaf segments, inoculated two days after application, assessed 5-7 days after application, read-out: control of Pyrenophora teres (disease control compared to untreated)
[5] = tested on: Botryotinia fuckeliana (Botrytis cinerea); assay: Botryotinia fuckeliana (Botrytis cinerea) / liquid culture (gray mould); type: cell-based; settings: Vogels broth, 96-well plate, 24° C., 3-4 days after application, read-out: control of Botryotinia fuckeliana (inhibition of growth, photometric)
[6] = tested on: Glomerella lagenarium (Colletotrichum lagenarium); assay: Glomerella lagenarium (Colletotrichum lagenarium) / liquid culture (anthracnose); type: cell-based; settings: Colletotrichum orbiculare, PDB potato dextrose broth, 96-well plate, 24° C., 3-4 days after application, read-out: control of Glomerella lagenarium (inhibition of growth, photometric)
[7] = tested on: Mycosphaerella arachidis (Cercospora arachidicola); assay: Mycosphaerella arachidis (Cercospora arachidicola) / liquid culture (early leaf spot); type: cell-based; settings: PDB potato dextrose broth, 96-well plate, 24° C., 4-5 days after application, read-out: control of Mycosphaerella arachidis (inhibition of growth, photometric)
[8] = tested on: Mycosphaerella graminicola (Septoria tritici); assay: Mycosphaerella graminicola (Septoria tritici) / liquid culture (Septoria blotch); type: cell-based; settings: Zymoseptoria tritici, PDB potato dextrose broth, 96-well plate, 24° C., 4-5 days after application, read-out: control of Mycosphaerella graminicola (inhibition of growth, photometric)
[9] = tested on: Gaeumannomyces graminis; assay: Gaeumannomyces graminis / liquid culture (take-all of cereals); type: cell-based; settings: liquid culture of mycelial fragments, PDB potato dextrose broth, 96-well plate, 24° C., 4-5 days after application, read-out: control of Gaeumannomyces graminis (inhibition of growth, photometric)
[10] = tested on: Thanatephorus cucumeris (Rhizoctonia solani); assay: Thanatephorus cucumeris (Rhizoctonia solani) / liquid culture (foot rot, damping-off); type: cell-based; settings: liquid culture of mycelia fragments, PDB potato dextrose broth, 96-well plate, 24° C., 3-4 days after application, read-out: control of Thanatephorus cucumeris (inhibition of growth, photometric)
Procedure: Thanatephorus cucumeris (Rhizoctonia solani)/Liquid Culture (Foot Rot, Damping-Off): Mycelia fragments of a newly grown liquid culture of the fungus are directly mixed into nutrient broth (PDB potato dextrose broth). After placing a DMSO solution of the test compounds into a 96-well microtiter plate at an application rate of 200 ppm, the nutrient broth containing the fungal material was added. The test plates were incubated at 24° C. and the inhibition of growth was determined photometrically 3-4 days after application.

[11] = tested on: Monographella nivalis (Microdochium nivale); assay: Monographella nivalis (Microdochium nivale) / liquid culture (foot rot cereals); type: cell-based; settings: PDB potato dextrose broth, 96-well plate, 24° C., 4-5 days after application, read-out: control of Monographella nivalis (inhibition of growth, photometric)
Procedure: Monographella nivalis (Microdochium nivale)/Liquid Culture (Foot Rot Cereals): Conidia of the fungus from cryogenic storage were directly mixed into nutrient broth (PDB potato dextrose broth). After placing a DMSO solution of test compound into a 96-well microtiter plate at an application rate of 200 ppm, the nutrient broth containing the fungal spores was added. The test plates were incubated at 24° C. and the inhibition of growth was determined photometrically 4-5 days after application. […].103

[12] = tested on: Blumeria graminis f. sp. tritici (Erysiphe graminis f. sp. tritici); assay: Blumeria graminis f. sp. tritici (Erysiphe graminis f. sp. tritici) / wheat / leaf disc preventative (powdery mildew on wheat); type: in vivo; settings: foliar, wheat cv. Kanzler leaf segments, inoculated 1 day after application, assessed 6-8 days after application, read-out: control of Blumeria graminis (percent disease control compared to untreated)
[13] = tested on: Magnaporthe grisea (Pyricularia oryzae); assay: whole plant or invertebrate; type: in vivo; settings: foliar, read-out: control of Magnaporthe grisea (percent disease control compared to untreated)

CO/N=C(\C)c1cccc(CCCO/N=C(\C)c2cccc(C)n2)n1 [P.12]
≥ 80%: pest or weed control at 200 ppm [1] | pest or weed control at 200 ppm [2] | pest or weed control at 200 ppm [3] | pest or weed control at 200 ppm [4] | inhibition at 200 ppm [5] | inhibition at 200 ppm [6] | inhibition at 200 ppm [7] | inhibition at 200 ppm [8] | inhibition at 200 ppm [9] | inhibition at 200 ppm [10] | inhibition at 200 ppm [11] | pest or weed control at 200 ppm [12]

CO/N=C(\C)c1cccc(CCCO/N=C(\C)c2cc(C)cc(C)n2)n1 [P.10]
≥ 80%: pest or weed control at 200 ppm [1] | pest or weed control at 200 ppm [2] | pest or weed control at 200 ppm [3] | pest or weed control at 200 ppm [4] | inhibition at 200 ppm [5] | inhibition at 200 ppm [6] | inhibition at 200 ppm [7] | inhibition at 200 ppm [8] | inhibition at 200 ppm [9] | inhibition at 200 ppm [10] | inhibition at 200 ppm [11] | pest or weed control at 200 ppm [12]

CCC(CO/N=C(\C)c1cccc(C)n1)Cc1cccc(/C(C)=N/OC)n1 (stereo not drawn) [P.04]
≥ 80%: pest or weed control at 200 ppm [1] | pest or weed control at 200 ppm [2] | pest or weed control at 200 ppm [3] | pest or weed control at 200 ppm [4] | inhibition at 200 ppm [5] | inhibition at 200 ppm [6] | inhibition at 200 ppm [7] | inhibition at 200 ppm [8] | inhibition at 200 ppm [9] | inhibition at 200 ppm [10] | inhibition at 200 ppm [11] | pest or weed control at 200 ppm [12]

CON=C(c1ccccc1)c1cccc(CCCO/N=C(\C)c2cccc(C)n2)n1 [P.24]
≥ 80%: pest or weed control at 200 ppm [1] | pest or weed control at 200 ppm [2] | pest or weed control at 200 ppm [3] | pest or weed control at 200 ppm [4] | inhibition at 200 ppm [5] | inhibition at 200 ppm [6] | inhibition at 200 ppm [7] | inhibition at 200 ppm [8] | inhibition at 200 ppm [9] | inhibition at 200 ppm [10] | inhibition at 200 ppm [11] | pest or weed control at 200 ppm [12]

COCCCc1cccc(/C(C)=N/OCCCc2cccc(/C(C)=N/OC)n2)n1 [P.76]
≥ 80%: pest or weed control at 200 ppm [3] | pest or weed control at 200 ppm [4] | inhibition at 200 ppm [5] | inhibition at 200 ppm [6] | inhibition at 200 ppm [7] | inhibition at 200 ppm [8] | inhibition at 200 ppm [9] | inhibition at 200 ppm [11] | pest or weed control at 200 ppm [13]

CO/N=C(\C)c1cccc(CCCO/N=C2\CCCc3c2nc2ccccc2c3C2CC2)n1 [P.97]
≥ 80%: pest or weed control at 200 ppm [1] | pest or weed control at 200 ppm [2] | pest or weed control at 200 ppm [3] | pest or weed control at 200 ppm [4] | inhibition at 200 ppm [5] | inhibition at 200 ppm [6] | inhibition at 200 ppm [7] | inhibition at 200 ppm [8] | inhibition at 200 ppm [11] | pest or weed control at 200 ppm [12] | pest or weed control at 200 ppm [13]

CO/N=C(\C)c1cccc(CCCO/N=C2\CCCc3cc4cc(Cl)ccc4nc32)n1 [P.96]
≥ 80%: pest or weed control at 200 ppm [3] | pest or weed control at 200 ppm [4] | inhibition at 200 ppm [5] | inhibition at 200 ppm [6] | inhibition at 200 ppm [7] | inhibition at 200 ppm [8] | inhibition at 200 ppm [9] | inhibition at 200 ppm [10] | inhibition at 200 ppm [11] | pest or weed control at 200 ppm [12] | pest or weed control at 200 ppm [13]

CO/N=C(\C)c1cccc(CCCO/N=C2\CCCc3c2nc2ncccc2c3C)n1 [P.72]
≥ 80%: pest or weed control at 200 ppm [1] | pest or weed control at 200 ppm [2] | pest or weed control at 200 ppm [3] | pest or weed control at 200 ppm [4] | inhibition at 200 ppm [5] | inhibition at 200 ppm [6] | inhibition at 200 ppm [8] | pest or weed control at 200 ppm [12] | pest or weed control at 200 ppm [13]

CO/N=C(\C)c1cccc(CCCO/N=C2\CCCc3c2nc2ccsc2c3C)n1 [P.88]
≥ 80%: pest or weed control at 200 ppm [1] | pest or weed control at 200 ppm [2] | pest or weed control at 200 ppm [3] | pest or weed control at 200 ppm [4] | inhibition at 200 ppm [5] | inhibition at 200 ppm [6] | inhibition at 200 ppm [7] | inhibition at 200 ppm [8] | inhibition at 200 ppm [10] | inhibition at 200 ppm [11] | pest or weed control at 200 ppm [12] | pest or weed control at 200 ppm [13]

CO/N=C(\C)c1cccc(CCCO/N=C2\CCCc3c2nc2cc(OC)c(OC)cc2c3C)n1 [P.82]
≥ 80%: pest or weed control at 200 ppm [3] | pest or weed control at 200 ppm [4] | inhibition at 200 ppm [5] | inhibition at 200 ppm [6] | inhibition at 200 ppm [7] | inhibition at 200 ppm [8] | inhibition at 200 ppm [10] | inhibition at 200 ppm [11] | pest or weed control at 200 ppm [12] | pest or weed control at 200 ppm [13]

CCc1c2c(nc3ccccc13)/C(=N/OCCCc1cccc(/C(C)=N/OC)n1)CCC2 [P.92]
≥ 80%: pest or weed control at 200 ppm [1] | pest or weed control at 200 ppm [2] | pest or weed control at 200 ppm [3] | pest or weed control at 200 ppm [4] | inhibition at 200 ppm [5] | inhibition at 200 ppm [6] | inhibition at 200 ppm [7] | inhibition at 200 ppm [8] | inhibition at 200 ppm [10] | inhibition at 200 ppm [11] | pest or weed control at 200 ppm [12] | pest or weed control at 200 ppm [13]

CO/N=C(\C)c1cccc(CCCO/N=C2\CCCc3c2nc2ccc(Cl)cc2c3C)n1 [P.91]
≥ 80%: pest or weed control at 200 ppm [1] | pest or weed control at 200 ppm [3] | inhibition at 200 ppm [5] | inhibition at 200 ppm [6] | inhibition at 200 ppm [7] | inhibition at 200 ppm [8] | inhibition at 200 ppm [10] | inhibition at 200 ppm [11] | pest or weed control at 200 ppm [12] | pest or weed control at 200 ppm [13]

C=CCOCCCc1cccc(/C(C)=N/OCCCc2cccc(/C(C)=N/OC)n2)n1 [P.74]
≥ 80%: pest or weed control at 200 ppm [3] | pest or weed control at 200 ppm [4] | inhibition at 200 ppm [5] | inhibition at 200 ppm [7] | inhibition at 200 ppm [8] | inhibition at 200 ppm [9] | inhibition at 200 ppm [11] | pest or weed control at 200 ppm [12] | pest or weed control at 200 ppm [13]

CO/N=C(\C)c1cccc(CCCO/N=C(\C)c2nc(C)cc(C)n2)n1 [P.62, 1-(6-(3-[1-(4,6-dimethyl-pyrimidin-2-yl)-eth-(E)-ylideneaminooxy]-propyl)-pyridin-2-yl)-ethanone O-methyl oxime]
≥ 80%: pest or weed control at 200 ppm [2] | inhibition at 200 ppm [5] | inhibition at 200 ppm [7] | inhibition at 200 ppm [8] | inhibition at 200 ppm [10] | pest or weed control at 200 ppm [13]
